Experimental data published in patent US20240350481A1, “USE OF N-MYRISTOYL TRANSFERASE (NMT) INHIBITORS IN THE TREATMENT OF CANCER, AUTOIMMUNE DISORDERS, AND INFLAMMATORY DISORDERS” (PACYLEX PHARMACEUTICALS INC., priority 2020, published 2024).

Legend:
[1] = tested on: hematological cancer cell lines; test: Viability of hematological cancer cell lines in vitro (assay not given); type: cell-based; conditions: most hematological cancer cell lines in vitro
BL2 and IM9 cells = test: Calcein viability, PCLX-001 vs dasatinib and ibrutinib; type: cell-based
Protocol: Calcein assay consists of measuring the cell viability ratio (live cells/total cells and expressed as % viability). Cells were stained with the Nuclear-ID Blue/Red cell viability reagent (GFP-certified, Enzo Life Sciences) to identify total cells, and dead cells while live cells were stained with Calcein AM (Life Technologies) according to manufacturer's instructions. Cell count was performed using a Cytation 5 Cell Imaging Multi-Mode Reader (Biotek Instruments, Inc.) and analysed by Biotek Gen5 Data Analysis software (version 2.09).

DOHH2 tumors = test: DOHH2 xenograft, tumor growth; type: in vivo, mouse
Protocol: DOHH2 xenograft study at Charles River's facility: […] On Day 1 of the study, animals were given a rehydration solution ad libitum in an effort to reduce dehydration during the dosing phase of the study. […] The dose volume was 10 mL/kg.

BL2 xenografts = test: BL2 xenograft, tumor growth; type: in vivo, mouse
From the text: BL2 xenograft study at Jackson Laboratory: One hundred five (105) 6 week old female NOD.CB17-Prkdc scid/J (NOD scid, Stock #001303) mice were transferred to the in vivo research laboratory in Sacramento, CA. The mice were ear notched for identification and housed in individually and positively ventilated polysulfone cages with HEPA filtered air at a density of 5 mice per cage. Initially cages were changed every two weeks. The animal room was lighted entirely with artificial fluorescent lighting, with a controlled 12 hour light/dark cycle (6 am to 6 pm light). The normal temperature and relative humidity ranges in the animal rooms were 20-26° C. and 30-70%, respectively. The animal rooms were set to have up to 15 air exchanges per hour. Filtered tap water, acidified to a pH of 2.5 to 3.0, and standard lab chow were provided ad libitum.
(§1) The dose volume was 10 mL/kg.
TGI (%)=(Vcontrol−Vtreated)/(Vcontrol−Vnitial)*100.

[2] = Toxicology in DLBCL3 patient derived xenograft mice; type: in vivo, mouse; conditions: for Absolute Basophil cells: normal [0-0.2]; for Absolute Monocyte cells: normal [0-0.4]; for Basophil %: normal [0-2]; for Eosinophil %: normal [0-3.9]; for Monocyte %: normal [0-7.5]; for Absolute Neutrophil cells: normal [0.1- 2.4]; for WBC: normal [1.8-10.7]; for MPV: normal [5-20]; for RDW %: normal [12.4-27]
Protocol: as §1

[3] = Toxicology in DOHH2 xenograft mice
Protocol: Mice were observed daily for clinical signs of toxicity and effects on body weight. After the last dose, three mice/group were euthanized and necropsied. At euthanasia, blood samples were taken for hematology analyses and to measure AST and CK activities and bilirubin and creatinine concentrations. At necropsy, samples of samples of femur, both kidneys, liver, small intestine, and injection site were taken and fixed.
The dose volume was 10 mL/kg. At the end of the two-to three-week dosing period, mice were euthanized and three/group were necropsied. Mice that died or were euthanized early for humane reasons also were necropsied. In life, mice were monitored regularly and weighed daily, and tumors were measured with digital Vernier calipers (Mitutoyo) every other day. Tumor volume was calculated as length (mm)×width (mm)2/2; length and width were the longest and shortest diameters, respectively. At euthanasia, at the end of the dosing period blood samples were taken for hematology analyses and clinical chemistry analyses that included AST and CK activities and bilirubin and creatinine concentrations (plus ALT activity and BUN concentration in the Jackson Laboratory study). At necropsy, samples of femur, both kidneys, liver, small intestine, and injection site were collected and fixed. These were subsequently processed and examined by light microscopy for histopathologic findings. Also at necropsy, the tumors were removed and divided in two. One piece was fixed in 10% neutral buffered formalin for 24 h at room temperature and embedded in paraffin; the other was snap frozen for RNA and protein analysis. Tumor growth inhibition (TGI) for all xenograft experiments was calculated following the formula:

[4] = DLBCL patient derived xenograft, PCLX-001 20 mg/kg/day
[5] = DLBCL patient derived xenograft, PCLX-001 50 mg/kg/day
[6] = DOHH2 xenograft, PCLX-001 10 mg/kg/day, normal [0-0.2]

## Cc1c(N[S+](=O)([O-])c2c(Cl)cc(-c3ccnc(N4CCNCC4)c3)cc2Cl)c(CC(C)C)nn1C [PCLX-001]
[1]
  IC50: 50 to 100 nM
BL2 and IM9 cells; BL2 cells, 0.1 and 1.0 μM, 48 hours
  cell death: less than 25%
BL2 and IM9 cells; at concentrations that are becoming cytotoxic
  viability of treated cells: at least 75%
DOHH2 tumors; 50 mg/kg daily with 5-day interruption, by day 16
  mean tumor growth inhibition (TGI): 95%
DOHH2 tumors; 50 mg/kg daily, by day 7
  reduction of tumor size: up to 70%
DOHH2 tumors; 50 mg/kg daily, day 7
  average tumor size: 44.0±8.1 mm^3
BL2 xenografts; 20 mg/kg daily, by day 9
  tumor regression: 42.5%
BL2 xenografts; 56 mg/kg daily, 13 days
  tumor regression: 100%
BL2 xenografts; 60 mg/kg daily, 13 days
  tumor regression: 100%
[2]; 50 mg/kg daily
  loss of body weight: ~15%
[2]; 20 and 50 mg/kg
  clinical signs, clinical pathology, anatomic pathology: no clinical signs of toxicity, effects on clinical pathology parameters, or anatomic pathology findings
[2]; [4]
  Hematocrit %: 47.13 ± 1.1%
  MCV: 53.5 ± 0.36
  Neutrophil %: 57.17 ± 9.40%
  RBC: 8.81 ± 0.15 M/ul
  Absolute Basophil cells: 0 ± 0
  Absolute Monocyte cells: 0.23 ± 0.06
  Basophil %: 0.1 ± 0.04%
  Eosinophil %: 0.26 ± 0.08%
  Monocyte %: 15.48 ± 4.35%
  Absolute Neutrophil cells: 0.86 ± 0.22
  WBC: 1.49 ± 0.24 K/ul
  MPV: 4.93
  RDW %: 18.07 ± 0.03%
[2]; [5]
  Hematocrit %: 42.47 ± 4.04%
  MCV: 50.83 ± 0.35
  Neutrophil %: 58.04%
  RBC: 8.36 ± 0.83 M/ul
  Absolute Basophil cells: 0 ± 0
  Absolute Monocyte cells: 0.37 ± 0.07
  Basophil %: 0.04 ± 0.04%
  Eosinophil %: 0.32 ± 0.1%
  Monocyte %: 17.24%
  Absolute Neutrophil cells: 1.28 ± 0.34
  WBC: 2.17 ± 0.5 K/ul
  MPV: 5.27 ± 0.18
  RDW %: 20.37 ± 0.37%
[2]; DLBCL patient derived xenograft, PCLX-001 50 mg/kg/day, normal [0.9-9.3]
  Absolute Lymphocyte cells: 0.52 ± ? .12
[2]; DLBCL patient derived xenograft, PCLX-001 50 mg/kg/day, normal [14.1-19.3]
  MCH: 12.5 pg
[2]; DLBCL patient derived xenograft, PCLX-001 50 mg/kg/day, normal [30.2-34.2]
  MCHC: 24.53 ± 0.24 g/dL
[2]; DLBCL patient derived xenograft, PCLX-001 50 mg/kg/day, normal [55.8-91.6]
  Lymphocyte %: 24.36 ± 2.93%
[3]; 50 mg/kg daily
  neutrophil and monocyte counts: lower than normal in all three mice
[3]; 50 mg/kg every other day
  RBC counts: lower than normal in all three mice
[3]; 50 mg/kg groups
  femoral bone marrow histopathology: no histopathologic findings
[3]; DOHH2 xenograft, PCLX-001 10 mg/kg/day
  Reticulocyte %: 8.08 ± 1.58%
[3]; [6]
  Absolute Basophil cells: 0.01 ± 0 K/ul
  Absolute Eosinophil cells: 0.05 ± 0.02 K/ul
[3]; DOHH2 xenograft, PCLX-001 10 mg/kg/day, normal [0-0.4]
  Absolute Monocyte cells: 0.52 ± 0.06 K/ul
[3]; DOHH2 xenograft, PCLX-001 10 mg/kg/day, normal [0.1-2.4]
  Absolute Neutrophil cells: 4.89 ± 0.34 K/ul
[3]; DOHH2 xenograft, PCLX-001 10 mg/kg/day, normal [0.9-9.3]
  Absolute Lymphocyte cells: 0.83 ± ? .19 K/ul
[3]; DOHH2 xenograft, PCLX-001 10 mg/kg/day, normal [1.8-10.7]
  WBC: 6.3 ± 0.12 K/ul
[3]; DOHH2 xenograft, PCLX-001 10 mg/kg/day, normal [5-20]
  MPV: 6.77 ± 0.18 fL
[3]; DOHH2 xenograft, PCLX-001 10 mg/kg/day, normal [6.36-9.42]
  RBC: 9.45 ± 0.1 M/ul
[3]; DOHH2 xenograft, PCLX-001 10 mg/kg/day, normal [11-15.1]
  Hemoglobin: 14.13 ± 0.18 g/dL
[3]; DOHH2 xenograft, PCLX-001 10 mg/kg/day, normal [12.4-27]
  RDW %: 25.97 ± 0.46%
[3]; DOHH2 xenograft, PCLX-001 10 mg/kg/day, normal [14.1-19.3]
  MCH: 14.93 ± 0.03 pg
[3]; DOHH2 xenograft, PCLX-001 10 mg/kg/day, normal [30.2-34.2]
  MCHC: 32.73 ± 0.07 g/dL
[3]; DOHH2 xenograft, PCLX-001 10 mg/kg/day, normal [35.1-45.4]
  Hematocrit %: 43.2 ± 0.61%
[3]; DOHH2 xenograft, PCLX-001 10 mg/kg/day, normal [45.4-60.3]
  MCV: 45.7 ± 0.2 fL
[3]; DOHH2 xenograft, PCLX-001 10 mg/kg/day, normal [592-2972]
  Platelets: 1490 ± 91.31 K/uL
[3]; DOHH2 xenograft, PCLX-001 20 mg/kg/day
  Reticulocyte %: 7.21 ± 0.49%
[3]; DOHH2 xenograft, PCLX-001 20 mg/kg/day, normal [0-0.2]
  Absolute Basophil cells: 0.01 ± 0 K/ul
